The record followed here is patent US8557816B2, “Aurora kinase modulators and method of use” (Amgen Inc., priority 2007, dated 2013).

Molecules are shown by their SMILES.

One test deals with T1, AuroraA-TPX2 (Homo sapiens, UniProt O14965).
T1 construct: 20 μL of AuroraA-TPX2 KD GST for a final volume of about 41 μL; GST
T1 sequence (O14965 133-383 limits assumed): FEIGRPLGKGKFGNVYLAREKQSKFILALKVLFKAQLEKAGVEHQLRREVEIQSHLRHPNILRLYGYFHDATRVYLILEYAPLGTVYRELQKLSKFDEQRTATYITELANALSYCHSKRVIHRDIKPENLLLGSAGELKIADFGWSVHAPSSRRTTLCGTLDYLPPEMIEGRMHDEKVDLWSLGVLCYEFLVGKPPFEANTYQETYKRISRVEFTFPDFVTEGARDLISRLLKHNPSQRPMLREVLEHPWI
T1 sequence (Q9ULW0 1-43 partner limits assumed): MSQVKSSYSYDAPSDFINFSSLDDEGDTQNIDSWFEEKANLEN
Nature of the test: AuroraA-TPX2 Homogeneous Time Resolved Fluorescent (HTRF) kinase assay. The class given is biochemical. The conditions noted are these: average; read-out: AurA_IC50_IP (uM Avg). The gist of the method:
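HTRF read-out (Eu 615 nm to APC 655 nm) of phosphorylated biotin-PLK, detected with 0.02 nM europium anti-phosphoPLK antibody and 0.0005 mg/mL SA-APC after overnight equilibration.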

The next test deals with T2, AuroraB (Homo sapiens, UniProt Q96GD4).
T2 construct: 20 μL of AuroraB FL H is for a final volume of 41 μL; His
Nature of the test: AuroraB Homogeneous Time Resolved Fluorescent (HTRF) kinase assay. The class given is biochemical. The conditions noted are these: average; read-out: AurB_IC50_IP (uM Avg). A digest of the protocol:
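Read-out is time-resolved FRET between europium anti-phospho-H3 antibody and streptavidin-APC, added in EDTA buffer to stop the reaction and equilibrated about 60 min (ex 320, em 615 and 655 nm). Preceding reaction: ~90 min, full-length enzyme, ATP, 0.1 μM biotin-Histone H3 substrate, Mg/Mn HEPES buffer pH 7.5.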

T2 sequence (Q96GD4 whole entry): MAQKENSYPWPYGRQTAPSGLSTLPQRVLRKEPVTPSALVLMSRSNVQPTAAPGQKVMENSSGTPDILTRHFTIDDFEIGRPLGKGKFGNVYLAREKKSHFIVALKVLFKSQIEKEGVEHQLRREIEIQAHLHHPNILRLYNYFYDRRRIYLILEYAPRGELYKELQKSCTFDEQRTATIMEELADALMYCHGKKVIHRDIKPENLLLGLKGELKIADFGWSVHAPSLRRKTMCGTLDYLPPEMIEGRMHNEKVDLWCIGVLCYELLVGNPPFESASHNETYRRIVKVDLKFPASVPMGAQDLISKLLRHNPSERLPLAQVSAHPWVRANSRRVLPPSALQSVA

For `COc1cnc2c(Sc3ccc(Nc4nnc(-c5ccccc5)c5ccccc45)cn3)ccnc2c1` [compound 413], the IC50 at AuroraA-TPX2 amounted to 0.09 µM; at AuroraB, 0.031 µM.

Turning to `Oc1cnc2c(Sc3ccc(Nc4nnc(-c5ccccc5)c5ccccc45)cc3)ccnc2c1` [compound 415], the IC50 on AuroraA-TPX2 was 0.043 µM; at AuroraB, 0.012 µM.

Consider `Cc1ccc(-c2nnc(Nc3ccc(Oc4ccnc5cccnc45)cc3)c3ccccc23)cc1N` [compound 416], for which the IC50 is 0.098 µM on AuroraA-TPX2 and 0.003 µM on AuroraB.

In the case of `c1ccc(-c2nnc(Nc3ccc(Oc4ccnc5cc(-c6cn[nH]c6)ccc45)cc3)c3ccccc23)cc1` [compound 417], the figures for the IC50 on AuroraA-TPX2 and at AuroraB were 0.009 µM and 0.002 µM, respectively.

In the case of `COc1cc2ncnc(Sc3ccc(Nc4nnc(-c5ccc(Cl)cc5)c5ccccc45)cc3)c2cc1OC` [compound 418], the IC50 on AuroraA-TPX2 was 0.028 µM; on AuroraB, 0.012 µM.

As for `COc1ccc2nccc(Sc3ccc(Nc4nnc(-c5cccc(C)n5)c5ccccc45)cc3)c2n1` [compound 419], the IC50 is 0.309 µM on AuroraA-TPX2 and 0.026 µM on AuroraB.

In the case of `COc1cnc2c(Sc3ccc(Nc4nnc(-c5cccc(C)n5)c5ccccc45)cc3)ccnc2c1` [compound 420], the IC50 on AuroraA-TPX2 came out at 0.072 µM; at AuroraB, 0.015 µM.

On to `Cc1cccc(-c2nnc(Nc3ccc(Sc4ccnc5cccnc45)cc3)c3ccccc23)n1` [compound 421], for which the IC50 worked out at 0.142 µM at AuroraA-TPX2 and 0.008 µM at AuroraB.

Take `COc1cc2c(Oc3ccc(Nc4nnc(-c5ccccc5)c5ccccc45)cc3)ccnc2cc1O` [compound 422]: the IC50 at AuroraA-TPX2 worked out at 0.029 µM; on AuroraB, 0.013 µM.

As to `Clc1ccc(-c2nnc(Nc3ccc(Oc4ccnc5ccncc45)cc3)c3ccccc23)cc1` [compound 423], the IC50 was 0.047 µM on AuroraA-TPX2 and 0.003 µM at AuroraB.

Take `c1ccc2c(-c3ccc4c(c3)OCO4)nnc(Nc3ccc(Oc4ccnc5ccncc45)cc3)c2c1` [compound 424]: the IC50 on AuroraA-TPX2 stood at 0.055 µM; at AuroraB it was 0.004 µM.

In the case of `c1ccc(-c2nnc(Nc3ccc(Sc4ccnc5ccncc45)cc3)c3ccccc23)cc1` [compound 425], the values for the IC50 on AuroraA-TPX2 and on AuroraB were 0.171 µM and 0.003 µM, respectively.

In the case of `Clc1ccc(-c2nnc(Nc3ccc(Sc4ccnc5ccncc45)cc3)c3ccccc23)cc1` [compound 426], the IC50 at AuroraA-TPX2 was determined as 0.1 µM; at AuroraB it was 0.008 µM.

In the case of `c1ccc2c(-c3ccc4c(c3)OCO4)nnc(Nc3ccc(Sc4ccnc5ccncc45)cc3)c2c1` [compound 427], the IC50 was determined as 0.055 µM on AuroraA-TPX2 and 0.007 µM on AuroraB.

For the molecule `Cc1csc(-c2nnc(Nc3ccc(Sc4ccnc5ccncc45)cc3)c3ccccc23)c1` [compound 428], the IC50 on AuroraA-TPX2 was 0.032 µM; on AuroraB, 0.013 µM.

As to `Cc1csc(-c2nnc(Nc3ccc(Oc4ccnc5ccncc45)cc3)c3ccccc23)c1` [compound 429], the values for the IC50 at AuroraA-TPX2 and on AuroraB were 0.046 µM and 0.012 µM, respectively.

As to `Clc1ccc(-c2nnc(Nc3ccc(Sc4ccnc5ccncc45)cc3)c3ccccc23)nc1` [compound 430], the IC50 at AuroraA-TPX2 is 0.084 µM; at AuroraB it was 0.007 µM.

For the molecule `COCCOc1ccc2c(Sc3ccc(Nc4nnc(-c5ccc(Cl)cc5)c5ccccc45)cc3)ccnc2c1` [compound 431], the IC50 is 0.012 µM on AuroraA-TPX2 and 0.018 µM on AuroraB.

As for `Cc1ccc(-c2nnc(Nc3ccc(Oc4ccnc5ccncc45)cc3)c3ccccc23)nc1` [compound 432], the IC50 on AuroraA-TPX2 was determined as 0.122 µM; on AuroraB it was 0.012 µM.

`Cc1ccc(-c2nnc(Nc3ccc(Sc4ccnc5ccncc45)cc3)c3ccccc23)nc1` [compound 433]: the IC50 came out at 0.056 µM at AuroraA-TPX2 and 0.004 µM on AuroraB.

Take `COCCOc1ccc2nccc(Sc3ccc(Nc4nnc(-c5ccc(Cl)cc5)c5ccccc45)cc3)c2c1` [compound 434]: the IC50 on AuroraA-TPX2 and on AuroraB was 0.109 µM each time.

Regarding `COc1cc(OC)c2c(Oc3ccc(Nc4nnc(-c5ccc(Cl)cc5)c5ccccc45)cc3)ccnc2c1` [compound 435], the results for the IC50 at AuroraA-TPX2 and at AuroraB were 0.038 µM and 0.121 µM, respectively.

As for `COc1cc(OC)c2c(Sc3ccc(Nc4nnc(-c5ccc(Cl)cc5)c5ccccc45)cc3)ccnc2c1` [compound 436], the IC50 at AuroraA-TPX2 is 0.401 µM; on AuroraB, 0.675 µM.

Consider `COc1cc(F)cc2nccc(Oc3ccc(Nc4nnc(-c5ccc(Cl)cc5)c5ccccc45)cc3)c12` [compound 437], for which the results for the IC50 on AuroraA-TPX2 and on AuroraB were 0.042 µM and 0.035 µM, respectively.

`COc1cc(F)cc2nccc(Sc3ccc(Nc4nnc(-c5ccc(Cl)cc5)c5ccccc45)cc3)c12` [compound 438]: the IC50 turned out to be 0.112 µM on AuroraA-TPX2 and 0.051 µM on AuroraB.

As for `COc1cc(OC)c2c(Sc3ccc(Nc4nnc(-c5cc(C)cs5)c5ccccc45)cc3)ccnc2c1` [compound 439], the IC50 was determined as 1.66 µM on AuroraA-TPX2 and 3.2 µM on AuroraB.

For the molecule `COc1cc(F)cc2nccc(Sc3ccc(Nc4nnc(-c5cc(C)cs5)c5ccccc45)cc3)c12` [compound 440], the IC50 at AuroraA-TPX2 is 0.585 µM; on AuroraB it was 0.596 µM.

In the case of `COc1cc(OC)c2c(Oc3ccc(Nc4nnc(-c5cc(C)cs5)c5ccccc45)cc3)ccnc2c1` [compound 441], the IC50 on AuroraA-TPX2 turned out to be 0.456 µM; on AuroraB, 0.135 µM.

In the case of `COc1cc(F)cc2nccc(Oc3ccc(Nc4nnc(-c5cc(C)cs5)c5ccccc45)cc3)c12` [compound 442], the figures for the IC50 on AuroraA-TPX2 and on AuroraB were 0.157 µM and 0.017 µM, respectively.

Consider `c1cnc2c(Sc3ccc(Nc4nnc(-c5ccc6c(c5)OCO6)c5ccccc45)cc3)ccnc2c1` [compound 443], for which the IC50 on AuroraA-TPX2 amounted to 0.012 µM; on AuroraB, 0.002 µM.

Take `FC1(F)Oc2ccc(-c3nnc(Nc4ccc(Sc5ccnc6cccnc56)cc4)c4ccccc34)cc2O1` [compound 444]: the IC50 on AuroraA-TPX2 was determined as 0.128 µM; at AuroraB, 0.022 µM.

Regarding `c1cnc2c(Sc3ccc(Nc4nnc(-c5ccc6c(c5)CCO6)c5ccccc45)cc3)ccnc2c1` [compound 445], the IC50 on AuroraA-TPX2 amounted to 0.03 µM; at AuroraB, 0.013 µM.

Consider `c1cnc2c(Sc3ccc(Nc4nnc(-c5ccc6occc6c5)c5ccccc45)cc3)ccnc2c1` [compound 446], for which the IC50 at AuroraA-TPX2 amounted to 0.035 µM; on AuroraB it was 0.011 µM.

On to `Cc1csc(-c2nnc(Nc3ccc(Oc4ccnc5cccnc45)cc3)c3ccccc23)c1` [compound 447], for which the IC50 on AuroraA-TPX2 turned out to be 0.027 µM; at AuroraB, 0.013 µM.

On to `Clc1ccc(-c2nnc(Nc3ccc(Oc4ccnc5cccnc45)cc3)c3ccccc23)cc1` [compound 448], for which the IC50 at AuroraA-TPX2 was found to be 0.039 µM; at AuroraB it was 0.011 µM.

For `COc1cnc2c(Oc3ccc(Nc4nnc(-c5ccc(C)c(O)c5)c5ccccc45)cc3)ccnc2c1` [compound 449], the IC50 on AuroraA-TPX2 worked out at 0.026 µM; at AuroraB, 0.006 µM.

Consider `COCCOc1cc(-c2nnc(Nc3ccc(Sc4ccnc5cc(OC)cnc45)cc3)c3ccccc23)ccc1Cl` [compound 450], for which the IC50 worked out at 0.101 µM at AuroraA-TPX2 and 0.054 µM at AuroraB.

With `COc1cnc2c(Sc3ccc(Nc4nnc(-c5ccc(C)c(O)c5)c5ccccc45)cc3)ccnc2c1` [compound 451], the IC50 on AuroraA-TPX2 stood at 0.078 µM; at AuroraB, 0.033 µM.

Regarding `Oc1cc(-c2nnc(Nc3ccc(Sc4ccnc5cccnc45)cc3)c3ccccc23)ccc1Cl` [compound 452], the IC50 on AuroraA-TPX2 is 0.058 µM; on AuroraB, 0.003 µM.

`COc1cnc2c(Sc3ccc(Nc4nnc(-c5ccc6cn[nH]c6c5)c5ccccc45)cc3)ccnc2c1` [compound 453]: the results for the IC50 on AuroraA-TPX2 and at AuroraB were 0.028 µM and 0.032 µM, respectively.

Consider `COc1cnc2c(Oc3c(F)cc(Nc4nnc(-c5ccc(Cl)cc5)c5ccccc45)cc3F)ccnc2c1` [compound 454], for which the IC50 on AuroraA-TPX2 came to 0.05 µM; at AuroraB it was 0.01 µM.

As to `Fc1ccc2c(Oc3ccc(Nc4nnc(-c5ccc(Cl)cc5)c5ccccc45)cc3)ccnc2c1` [compound 455], the IC50 at AuroraA-TPX2 is over 125 µM; at AuroraB, 0.013 µM.

Regarding `COc1cnnc(Nc2ccc(Oc3ccnc4cc(OC)cnc34)cc2)c1` [compound 456], the IC50 came out at 1 µM at AuroraA-TPX2 and 0.058 µM on AuroraB.

With `N#Cc1cc2nccc(Sc3ccc(Nc4nnc(-c5ccc6c(c5)OCO6)c5ccccc45)cc3)c2s1` [compound 457], the IC50 worked out at 0.062 µM on AuroraA-TPX2 and 0.015 µM at AuroraB.

On to `N#Cc1cc2nccc(Sc3ccc(Nc4nnc(-c5ccccc5)c5ccccc45)cc3)c2s1` [compound 458], for which the IC50 at AuroraA-TPX2 was over 25 µM; on AuroraB it was 0.097 µM.

For `Cc1csc(-c2nnc(Nc3ccc(Sc4ccnc5cc(C#N)sc45)cc3)c3ccccc23)c1` [compound 459], the IC50 at AuroraA-TPX2 amounted to 0.21 µM; at AuroraB, 0.15 µM.

Consider `N#Cc1cc2nccc(Sc3ccc(Nc4nnc(-c5ccc(Cl)cn5)c5ccccc45)cc3)c2s1` [compound 460], for which the IC50 at AuroraA-TPX2 stood at 0.045 µM; at AuroraB, 0.015 µM.

With `Cc1ccc(-c2nnc(Nc3ccc(Sc4ccnc5cc(C#N)sc45)cc3)c3ccccc23)cn1` [compound 461], the IC50 amounted to 0.044 µM on AuroraA-TPX2 and 0.009 µM at AuroraB.
